O=C(Nc1ccc(F)cc1F)c1cccnc1Oc1cccc(C(F)(F)F)c1
solubility (mole fraction)
Settings | 278.15 K | 283.15 K | 288.15 K | 293.15 K | 298.15 K | 303.15 K | 308.15 K | 313.15 K | 318.15 K | 323.15 K
in ethanol | 0.000246 | 0.000325 | 0.000425 | 0.00055 | 0.000703 | 0.000894 | 0.00113 | 0.00142 | 0.00177 | 0.0022
in ethyl acetate | 0.0105 | 0.0125 | 0.015 | 0.0176 | 0.0206 | 0.024 | 0.0281 | 0.0322 | 0.0371 | 0.0429
in isopropanol | 4.4e-05 | 7.09e-05 | 0.000114 | 0.000186 | 0.000292 | 0.000456 | 0.00069 | 0.00104 | 0.00158 | 0.00232
in methanol | 0.000223 | 0.0003 | 0.000385 | 0.000489 | 0.000633 | 0.000799 | 0.000999 | 0.00125 | 0.00155 | 0.00193
in water | 1.52e-07 | 2e-07 | 2.53e-07 | 3.15e-07 | 3.93e-07 | 4.84e-07 | 5.94e-07 | 7.19e-07 | 8.81e-07 | 1.07e-06

Reference: BigSolDB 2.1
